US12421253B2 (Mirati Therapeutics, Inc., priority 2020, dated 2025)
pIC50: −log10 of the molar value.

Assays:
[1] = target: T1, KRas^WT (Homo sapiens, UniProt P01116); test: KRas binding assay (TR-FRET displacement of Cy5 labelled tracer)
T1 construct: […]; biotin (biotinylated); purchased Accelegan Inc

[2] = target: T2, KRas^G12A (Homo sapiens, UniProt P01116, G12A); test: as above
T2 construct: […]; biotin (biotinylated); purchased Accelegan Inc

[3] = target: T3, KRas^G12D (Homo sapiens, UniProt P01116, G12D); test: as above
T3 construct: […]; biotin (biotinylated); purchased Accelegan Inc

[4] = target: T4, KRas^G12R (Homo sapiens, UniProt P01116, G12R); test: as above
T4 construct: […]; biotin (biotinylated); purchased Accelegan Inc

[5] = target: T5, KRas^G12S (Homo sapiens, UniProt P01116, G12S); test: as above
T5 construct: […]; biotin (biotinylated); purchased Accelegan Inc

[6] = target: T6, KRas^G12V (Homo sapiens, UniProt P01116, G12V); test: as above
T6 construct: […]; biotin (biotinylated); purchased Accelegan Inc

[7] = target: KRas^G12C (Homo sapiens, UniProt P01116, G12C); test: biochemical
[8] = target: KRas^G13D (Homo sapiens, UniProt P01116, G13D); test: biochemical
[9] = target: KRas^Q61H (Homo sapiens, UniProt P01116, Q61H); test: biochemical
Chain of KRas^Q61H (P01116 1-169 isoform P01116-2 Q61H): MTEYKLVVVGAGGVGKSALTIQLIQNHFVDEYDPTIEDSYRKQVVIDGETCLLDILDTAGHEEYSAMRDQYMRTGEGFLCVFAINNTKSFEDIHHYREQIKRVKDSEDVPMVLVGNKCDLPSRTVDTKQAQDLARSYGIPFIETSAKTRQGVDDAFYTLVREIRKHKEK

T6 sequence (P01116 1-169 isoform P01116-2 G12V): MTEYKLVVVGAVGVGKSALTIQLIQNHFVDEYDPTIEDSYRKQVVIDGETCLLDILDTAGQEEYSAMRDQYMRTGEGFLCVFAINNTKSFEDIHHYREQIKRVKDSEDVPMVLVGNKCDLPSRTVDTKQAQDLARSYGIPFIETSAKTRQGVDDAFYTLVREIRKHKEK
Chain of KRas^G12C (P01116 1-169 isoform P01116-2 G12C): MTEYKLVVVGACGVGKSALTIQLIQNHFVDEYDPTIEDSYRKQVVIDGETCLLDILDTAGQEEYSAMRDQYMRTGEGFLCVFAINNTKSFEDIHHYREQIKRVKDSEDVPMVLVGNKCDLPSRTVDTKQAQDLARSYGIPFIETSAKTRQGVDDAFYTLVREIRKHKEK
T3 sequence (P01116 1-169 isoform P01116-2 G12D): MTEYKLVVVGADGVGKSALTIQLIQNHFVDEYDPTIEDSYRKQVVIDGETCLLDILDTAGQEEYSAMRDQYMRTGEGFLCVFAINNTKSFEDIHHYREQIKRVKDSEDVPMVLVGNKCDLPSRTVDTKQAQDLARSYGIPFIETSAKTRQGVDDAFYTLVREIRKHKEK
Chain of KRas^G13D (P01116 1-169 isoform P01116-2 G13D): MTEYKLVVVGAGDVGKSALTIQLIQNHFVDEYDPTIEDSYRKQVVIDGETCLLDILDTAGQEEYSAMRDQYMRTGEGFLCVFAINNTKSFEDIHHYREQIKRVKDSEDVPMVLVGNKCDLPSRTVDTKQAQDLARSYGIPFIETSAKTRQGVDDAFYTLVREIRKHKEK
T1 sequence (P01116 1-169 isoform P01116-2): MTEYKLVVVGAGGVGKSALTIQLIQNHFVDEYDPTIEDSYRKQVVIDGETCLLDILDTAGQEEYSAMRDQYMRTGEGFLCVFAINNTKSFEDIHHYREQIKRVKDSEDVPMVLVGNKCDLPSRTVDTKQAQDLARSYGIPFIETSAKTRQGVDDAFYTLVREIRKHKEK
T4 sequence (P01116 1-169 isoform P01116-2 G12R): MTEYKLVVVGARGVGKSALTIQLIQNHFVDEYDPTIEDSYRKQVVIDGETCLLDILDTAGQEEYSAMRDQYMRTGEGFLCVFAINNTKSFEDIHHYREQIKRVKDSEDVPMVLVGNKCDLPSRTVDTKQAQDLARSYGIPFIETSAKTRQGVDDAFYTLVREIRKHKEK
T5 sequence (P01116 1-169 isoform P01116-2 G12S): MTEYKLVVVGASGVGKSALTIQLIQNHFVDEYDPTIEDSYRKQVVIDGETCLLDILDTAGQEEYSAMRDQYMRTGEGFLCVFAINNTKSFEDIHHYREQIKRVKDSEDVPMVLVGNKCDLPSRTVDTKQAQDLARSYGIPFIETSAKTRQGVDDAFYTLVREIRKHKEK
T2 sequence (P01116 1-169 isoform P01116-2 G12A): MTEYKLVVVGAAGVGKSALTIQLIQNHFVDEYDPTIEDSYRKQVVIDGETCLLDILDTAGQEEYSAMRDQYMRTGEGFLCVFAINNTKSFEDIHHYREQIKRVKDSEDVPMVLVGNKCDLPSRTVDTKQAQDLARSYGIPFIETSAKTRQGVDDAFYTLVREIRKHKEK

Row | pIC50 [1] | pIC50 [2] | pIC50 [3] | pIC50 [4] | pIC50 [5] | pIC50 [6] | pIC50 [7] | pIC50 [8] | pIC50 [9] | SMILES
1 | 7.18 | 7.35 | 7.20 | 7.55 | 7.35 | 7.74 | 7.43 | 7.19 | 7.26 | CCc1cccc2cccc(N3CCc4c(nc(OCC56CCCN5CCC6)nc4N4CCCC5(CC(=O)N5)C4)C3)c12 (stereo not drawn) [Example 16, 6-(7-(8-ethylnaphthalen-1-yl)-2-((hexahydro-1H-pyrrolizin-7a-yl)methoxy)-5,6,7,8-tetrahydropyrido[3,4-d]pyrimidin-4-yl)-1,6-diazaspiro[3.5]nonan-2-one]
2 | 6.39 | 6.36 | 6.22 | 6.26 | 6.31 | 6.39 | 6.38 | 6.26 | 6.29 | CCc1cccc2cccc(N3CCc4c(nc(OCC56CCCN5CCC6)nc4N4C[C@@H](C)C[C@@H](O)C4)C3)c12 [Example 111, (3R,5S)-1-(7-(8-ethylnaphthalen-1-yl)-2-((tetrahydro-1H-pyrrolizin-7a(5H)-yl)methoxy)-5,6,7,8-tetrahydropyrido[3,4-d]pyrimidin-4-yl)-5-methylpiperidin-3-ol]
3 | 6.45 | 6.09 | 4.82 | 5.51 | 5.51 | 5.19 | 5.52 | 6.44 | 6.37 | CCc1cccc2cccc(N3CCc4c(nc(OCC56CCCN5CCC6)nc4N4CCCN(C(=O)c5ccco5)CC4)C3)c12 [Example 102, (4-(7-(8-ethylnaphthalen-1-yl)-2-((tetrahydro-1H-pyrrolizin-7a(5H)-yl)methoxy)-5,6,7,8-tetrahydropyrido[3,4-d]pyrimidin-4-yl)-1,4-diazepan-1-yl)(furan-2-yl)methanone]
4 | 5.85 | 6.20 | 5.65 | 5.75 | 6.12 | 5.89 | 6.43 | 5.97 | 5.84 | CCc1cccc2cccc(N3CCc4c(nc(OCC56CCCN5CCC6)nc4N4CCCC(c5nnc6n5CCC6)C4)C3)c12 (stereo not drawn) [Example 106, 4-(3-(6,7-dihydro-5H-pyrrolo[2,1-c][1,2,4]triazol-3-yl)piperidin-1-yl)-7-(8-ethylnaphthalen-1-yl)-2-((tetrahydro-1H-pyrrolizin-7a(5H)-yl)methoxy)-5,6,7,8-tetrahydropyrido[3,4-d]pyrimidine]
5 | 6.49 | 6.32 | 5.94 | 6.30 | 6.28 | 6.25 | 6.25 | 6.47 | 6.40 | CCc1cccc2cccc(N3CCc4c(nc(OCC56CCCN5CCC6)nc4N4C[C@@H](C)C[C@H](O)C4)C3)c12 [Example 97, (3S,5S)-1-(7-(8-ethylnaphthalen-1-yl)-2-((tetrahydro-1H-pyrrolizin-7a(5H)-yl)methoxy)-5,6,7,8-tetrahydropyrido[3,4-d]pyrimidin-4-yl)-5-methylpiperidin-3-ol]
6 | 6.40 | 6.23 | 6.14 | 6.10 | 6.26 | 6.25 | 6.19 | 6.39 | 6.31 | CCc1cccc2cccc(N3CCc4c(nc(OCC56CCCN5CCC6)nc4N4CCCC(O)(C(F)(F)F)C4)C3)c12 (stereo not drawn) [Example 110, 1-(7-(8-ethylnaphthalen-1-yl)-2-((tetrahydro-1H-pyrrolizin-7a(5H)-yl)methoxy)-5,6,7,8-tetrahydropyrido[3,4-d]pyrimidin-4-yl)-3-(trifluoromethyl)piperidin-3-ol]

Continued, molecule first:

Row | SMILES | pIC50 [1] | pIC50 [2] | pIC50 [3] | pIC50 [4] | pIC50 [5] | pIC50 [6] | pIC50 [7] | pIC50 [8] | pIC50 [9]
7 | CCc1cccc2cccc(N3CCc4c(nc(OCC56CCCN5CCC6)nc4NCc4ccc5nncn5c4)C3)c12 [Example 39, N-([1,2,4]triazolo[4,3-a]pyridin-6-ylmethyl)-7-(8-ethylnaphthalen-1-yl)-2-((hexahydro-1H-pyrrolizin-7a-yl)methoxy)-5,6,7,8-tetrahydropyrido[3,4-d]pyrimidin-4-amine] | 5.86 | 6.37 | 5.15 | 6.62 | 6.23 | 6.66 | 6.50 | 5.82 | 5.79
8 | CCc1cccc2cccc(N3CCc4c(nc(OCC56CCCN5CCC6)nc4NC4CN(c5ccccn5)C4)C3)c12 [Example 150, 7-(8-ethylnaphthalen-1-yl)-N-(1-(pyridin-2-yl)azetidin-3-yl)-2-((tetrahydro-1H-pyrrolizin-7a(5H)-yl)methoxy)-5,6,7,8-tetrahydropyrido[3,4-d]pyrimidin-4-amine] | 5.33 | 5.30 | 5.26 | 5.81 | 5.31 | 5.59 | 5.71 | 5.22 | 5.29
9 | CCc1cccc2cccc(N3CCc4c(nc(OCC56CCCN5CCC6)nc4N4CCCC(CO)CC4)C3)c12 (stereo not drawn) [Example 107, (1-(7-(8-ethylnaphthalen-1-yl)-2-((tetrahydro-1H-pyrrolizin-7a(5H)-yl)methoxy)-5,6,7,8-tetrahydropyrido[3,4-d]pyrimidin-4-yl)azepan-4-yl)methanol] | 6.43 | 6.37 | 5.84 | 6.20 | 6.27 | 6.39 | 6.31 | 6.33 | 6.28
10 | CCc1cccc2cccc(N3CCc4c(nc(OCC56CCCN5CCC6)nc4N4CCCC(P(C)(C)=O)C4)C3)c12 (stereo not drawn) [Example 112, (1-(7-(8-ethylnaphthalen-1-yl)-2-((tetrahydro-1H-pyrrolizin-7a(5H)-yl)methoxy)-5,6,7,8-tetrahydropyrido[3,4-d]pyrimidin-4-yl)piperidin-3-yl)dimethylphosphine oxide] | 6.39 | 5.87 | 5.14 | 5.68 | 5.88 | 5.80 | 5.81 | 6.24 | 7.19
11 | CCc1cccc2cccc(N3CCc4c(nc(OCC56CCCN5CCC6)nc4NC4CCc5ncsc5C4)C3)c12 (stereo not drawn) [Example 168, N-(7-(8-ethylnaphthalen-1-yl)-2-((tetrahydro-1H-pyrrolizin-7a(5H)-yl)methoxy)-5,6,7,8-tetrahydropyrido[3,4-d]pyrimidin-4-yl)-4,5,6,7-tetrahydrobenzo[d]thiazol-6-amine] | 4.82 | 4.96 | 4.58 | 5.31 | 5.02 | 5.15 | 5.27 | 4.66 | 4.84
12 | CCc1cccc2cccc(N3CCc4c(nc(OCC56CCCN5CCC6)nc4N4CCCC(n5nccn5)C4)C3)c12 (stereo not drawn) [Example 132, 4-(3-(2H-1,2,3-triazol-2-yl)piperidin-1-yl)-7-(8-ethylnaphthalen-1-yl)-2-((tetrahydro-1H-pyrrolizin-7a(5H)-yl)methoxy)-5,6,7,8-tetrahydropyrido[3,4-d]pyrimidine] | 5.84 | 5.93 | 5.41 | 6.11 | 5.78 | 5.78 | 5.88 | 5.84 | 5.77
13 | CCc1cccc2cccc(N3CCc4c(nc(OCC56CCCN5CCC6)nc4N4CCCCCC(S(C)(=O)=O)C4)C3)c12 (stereo not drawn) [Example 14, 7-(8-ethylnaphthalen-1-yl)-4-(3-(methylsulfonyl)azocan-1-yl)-2-((tetrahydro-1H-pyrrolizin-7a(5H)-yl)methoxy)-5,6,7,8-tetrahydropyrido[3,4-d]pyrimidine] | 6.92 | 6.84 | 6.59 | 6.63 | 6.77 | 6.95 | 6.76 | 6.93 | 6.87
